Row | melting point | Compound
1 | 188 to 190 °C | COC(=O)c1cc2nnn(-c3ccccc3)c2nc1OCc1ncnn1C
2 | 142 to 145 °C | Cn1ncnc1COc1nc2c(cc1-c1ccc(F)cc1)nnn2-c1ccccc1F
3 | 154 to 156 °C | CCCn1ncnc1COc1nc2c(nnn2-c2ccccc2)c2ccccc12
4 | 165 to 167 °C | Cn1ncnc1COc1nc2c(cc1C(C)(C)C)nnn2-c1ccccc1
5 | 140 to 144 °C | Cn1ncnc1COc1nc2c(cc1C1CCC1)nnn2-c1c(F)cccc1F (hydrate or solvate)
6 | 115 to 117 °C | Cn1ncnc1COc1nc2c(cc1C(C)(C)C)nnn2-c1ccccc1F
7 | 105 to 108 °C | Cn1ncnc1COc1nc2c(cc1C(C)(C)C)nnn2-c1c(F)cccc1F
8 | 133 to 135 °C | Cn1ncnc1COc1nc2c(cc1-c1ccsc1)nnn2-c1ccccc1F
9 | 188 to 190 °C | Cn1ncnc1COc1nc2c(nnn2-c2ccccc2)c2ccccc12
10 | 192 to 195 °C | CCn1ncnc1COc1nc2c(nnn2-c2ccccc2)c2ccccc12
11 | 179 to 180 °C | Cn1cnc(COc2nc3c(cc2C(C)(C)C)nnn3-c2ccccc2)n1
12 | 137 to 140 °C | Cn1ncnc1COc1nc2c(cc1-c1cccc(F)c1)nnn2-c1c(F)cccc1F
13 | 116 to 118 °C | COc1cccc(F)c1-n1nnc2cc(C(C)(C)C)c(OCc3ncnn3C)nc21
14 | 127 to 129 °C | CCCn1ncnc1COc1nc2c(cc1C(C)(C)C)nnn2-c1ccccc1F
15 | 147 to 150 °C | c1ccc(-n2nnc3c4ccccc4c(OCc4ccccn4)nc32)cc1
16 | 166 to 169 °C | Cn1ncnc1COc1nc2c(cc1-c1ccoc1)nnn2-c1c(F)cccc1F
17 | 174 to 176 °C | Cn1cnc(COc2nc3c(cc2-c2ccsc2)nnn3-c2ccccc2F)n1
18 | 120 to 122 °C | Cn1ncnc1COc1nc2c(cc1C1CCC1)nnn2-c1ccccc1F
19 | 148 to 150 °C | CCn1ncnc1COc1nc2c(cc1C(C)(C)C)nnn2-c1cc(F)ccc1F
20 | 170 to 173 °C | Cn1ncnc1COc1nc2c(cc1-c1ccco1)nnn2-c1ccccc1F
21 | 127 to 129 °C | Cn1cnc(COc2nc3c(cc2C(C)(C)C)nnn3-c2ccccc2F)n1
22 | 144 to 146 °C | Cn1ncnc1COc1nc2c(cc1-c1ccccc1)nnn2-c1ccccc1F
23 | 189 to 190 °C | Cn1cnc(COc2nc3c(nnn3-c3ccccc3)c3ccccc23)n1
24 | 179 to 181 °C | Cn1cnc(COc2nc3c(cc2-c2cccs2)nnn3-c2ccccc2F)n1
25 | 145 to 146 °C | Cn1ncnc1COc1nc2c(cc1-c1ccoc1)nnn2-c1ccccc1F
26 | 130 to 133 °C | Cn1ncnc1COc1nc2c(cc1CC(C)(C)C)nnn2-c1ccccc1F
